Laboratory results as given in patent publication US20230172981A1, “METHODS AND COMPOSITIONS FOR STIMULATION OF CHIMERIC ANTIGEN RECEPTOR T CELLS WITH HAPTEN LABELLED CELLS” (Seattle Children's Hospital (dba Seattle Children's …, priority 2020, published 2023).

System: CD19+K562 cells
Assay: Cytokine release by antiFL CAR T cells with hapten-labeled cells
Assay type: cell-based
Details: trend; hapten-labeled cells prepared with 5 μM FL-DHPE
Method: Hapten-labeled cells were prepared. CD19+K562 cells were incubated either overnight with 5 μM FL-DHPE or for 20 min with an CD19 antibody labeled with FITC. The hapten-labeled cells were incubated with either one of two antiFL CAR T cells (FITC-E2 scFv, or 4M5.3 scFv). […] Hudecek M, et al., (2013) Clin Cancer Res. 19:3153-64, which is incorporated by reference in its entirety.
The levels of cytokines released by the antiFL CAR T cells were determined. […] The levels of released IFN-γ, and TNF-α were lower for hapten-labeled cells contacted with the antiFL(4M5.3) CAR T cell.

For CCCCCCCCCCCCCCCC(=O)OCC(COP(=O)(O)OCCNC(=S)Nc1ccc2c(c1)C(=O)OC21c2ccc(O)cc2Oc2cc(O)ccc21)OC(=O)CCCCCCCCCCCCCCC (stereo not shown) [FL-DHPE, N-(Fluorescein-5-Thiocarbamoyl)-1,2-Dihexadecanoyl-sn-Glycero-3-Phosphoethanolamine], the “cytokine release induced, compared to cells prepared with CD19 antibody labeled with FITC” value was “higher levels of cytokine release”.
